Results taken from the supplement of paper PMC10307832.

Tests used:
Experiment in all cases: relative viability (nuclei count vs DMSO), 5 days (fraction); higher = more cells survive
Erlotinib + Phenformin = compound: C#Cc1cccc(Nc2ncnc3cc(OCCOC)c(OCCOC)cc23)c1 [Erlotinib] + N=C(N)NC(=N)NCCc1ccccc1 [Phenformin] (partner 250 µM)
Method in brief: (§1)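 Dosing by pin tool came one day after lung cancer cell lines were seeded in 1536-well plates, using either one drug or a fixed anchor-drug dose plus five library-drug doses (not always all listed) in √10 steps. After 5 days, nuclei were counted on 4× images. Relative viability is treated-well nuclei count divided by vehicle-well nuclei count, and values are medians of duplicate plates.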

AT9283 + Decitabine = compound: O=C(Nc1c[nH]nc1-c1nc2ccc(CN3CCOCC3)cc2[nH]1)NC1CC1 [AT9283] + Nc1ncn([C@H]2C[C@H](O)[C@@H](CO)O2)c(=O)n1 [Decitabine] (partner 2 µM)
Method in brief: as §1

AT9283 + Luminespib = compound: O=C(Nc1c[nH]nc1-c1nc2ccc(CN3CCOCC3)cc2[nH]1)NC1CC1 [AT9283] + CCNC(=O)c1noc(-c2cc(C(C)C)c(O)cc2O)c1-c1ccc(CN2CCOCC2)cc1 [Luminespib] (partner 0.01 µM)
Method in brief: as §1

AT9283 + AZD7762 = compound: O=C(Nc1c[nH]nc1-c1nc2ccc(CN3CCOCC3)cc2[nH]1)NC1CC1 [AT9283] + NC(=O)Nc1cc(-c2cccc(F)c2)sc1C(=O)N[C@H]1CCCNC1 [AZD7762] (partner 0.2 µM)
Method in brief: as §1

Erlotinib + Linsitinib = compound: C#Cc1cccc(Nc2ncnc3cc(OCCOC)c(OCCOC)cc23)c1 [Erlotinib] + C[C@]1(O)C[C@@H](c2nc(-c3ccc4ccc(-c5ccccc5)nc4c3)c3c(N)nccn32)C1 [Linsitinib] (partner 1 µM)
Method in brief: as §1

Cell Line	relative viability (Erlotinib + Phenformin; first compound 0.02 µM)	relative viability (Erlotinib + Phenformin; first compound 0.2 µM)	relative viability (Erlotinib + Phenformin; first compound 0.6325 µM)	relative viability (Erlotinib + Phenformin; first compound 2 µM)	relative viability (AT9283 + Decitabine; first compound 0.003 µM)	relative viability (AT9283 + Decitabine; first compound 0.03 µM)	relative viability (AT9283 + Decitabine; first compound 0.09487 µM)	relative viability (AT9283 + Decitabine; first compound 0.3 µM)	relative viability (AT9283 + Luminespib; first compound 0.003 µM)	relative viability (AT9283 + Luminespib; first compound 0.03 µM)	relative viability (AT9283 + Luminespib; first compound 0.09487 µM)	relative viability (AT9283 + Luminespib; first compound 0.3 µM)	relative viability (AT9283 + AZD7762; first compound 0.003 µM)	relative viability (AT9283 + AZD7762; first compound 0.03 µM)	relative viability (AT9283 + AZD7762; first compound 0.09487 µM)	relative viability (AT9283 + AZD7762; first compound 0.3 µM)	relative viability (Erlotinib + Linsitinib; first compound 0.02 µM)	relative viability (Erlotinib + Linsitinib; first compound 0.2 µM)	relative viability (Erlotinib + Linsitinib; first compound 0.6325 µM)	relative viability (Erlotinib + Linsitinib; first compound 2 µM)
NCI-H2342	0.532	0.671	0.572	0.433	0.653	0.766	0.655	0.455	0.795	0.93	0.499	0.348	0.439	0.364	0.36	0.4	–	–	–	–
UMC-11	0.334	0.281	0.301	0.287	0.57	0.217	0.261	0.201	1.05	0.161	0.16	0.165	–	–	–	–	1.04	1.05	1.16	0.945
IA-LM	–	–	–	–	–	–	–	–	–	–	–	–	–	–	–	–	0.62	0.578	0.55	0.595
COR-L 105	0.525	0.245	0.322	0.216	0.67	0.394	0.317	0.328	1.02	0.334	0.401	0.33	–	–	–	–	0.907	0.532	0.385	0.289
CAL-12T	0.543	0.396	0.339	0.262	–	–	–	–	0.149	0.548	0.627	0.18	0.584	0.502	0.347	0.189	0.804	0.654	0.5	0.368
NCI-H2228	0.414	0.338	0.357	0.257	–	–	–	–	0.152	0.123	0.162	0.11	–	–	–	–	0.515	0.75	0.557	0.514
ChaGo-K-1	0.507	0.445	0.482	0.437	0.483	0.523	0.26	0.222	0.63	0.422	0.289	0.26	0.88	0.685	0.404	0.222	–	–	–	–
EBC-1	–	–	–	–	–	–	–	–	–	–	–	–	–	–	–	–	0.918	0.969	1.06	0.699
COR-L23	0.439	0.452	0.448	0.416	0.385	0.304	0.169	0.168	0.73	0.27	0.151	0.165	–	–	–	–	1.21	0.95	1.07	–
NCI-H520	0.751	0.525	0.646	0.706	0.381	0.297	0.272	0.171	0.247	0.23	0.204	0.254	–	–	–	–	0.98	0.915	1.03	0.965
SK-MES-1	0.705	0.599	0.385	0.368	0.396	0.334	0.306	0.138	0.885	0.821	0.405	0.22	–	–	–	–	1.09	0.767	0.537	0.434
SW 900	0.55	0.565	0.679	0.487	0.422	0.442	0.349	0.232	0.178	0.19	0.172	0.171	0.478	1.15	0.545	0.271	–	–	–	–
NCI-H2023	0.435	0.418	0.471	0.378	0.202	0.202	0.127	0.0969	0.954	0.742	0.361	0.11	–	–	–	–	0.721	0.574	0.428	0.496
SK-LU-1	0.621	0.536	0.573	0.479	0.62	0.423	0.415	0.407	0.203	0.203	0.209	0.157	–	–	–	–	1.46	1.11	1.18	0.75
NCI-H661	0.301	0.264	0.269	0.318	0.579	0.422	0.406	0.272	0.916	0.399	0.304	0.313	–	–	–	–	0.731	0.432	0.663	0.493
A549	0.225	0.196	0.178	0.199	0.136	0.114	0.0516	0.05	–	–	–	–	–	–	–	–	0.546	0.523	0.63	0.489
NCI-H1703	–	–	–	–	–	–	–	–	–	–	–	–	0.12	0.108	0.0955	0.106	0.749	0.818	1.08	0.924
NCI-H1648	–	–	–	–	0.515	0.503	0.409	0.303	–	–	–	–	0.465	0.631	0.368	0.37	–	–	–	–
NCI-H2009	0.533	0.51	0.529	0.49	0.378	0.358	0.225	0.222	1.04	0.978	0.736	0.325	–	–	–	–	1.26	1.15	1.2	1.22
